Results on 1 compound are retold here after PMC11311821, “Biochemical Characterisation of Sis: A Distinct Thermophilic PETase with Enhanced NanoPET Substrate Hydrolysis and Thermal Stability” (International Journal of Molecular Sciences, 2024).

The subject of this experiment is Sis. Nature of the experiment: spectrophotometric p-nitrophenol release at […] nm. In kind it is biochemical, metagenome: geothermal site (36 °C, pH 9.8). To be noted: optimal conditions of pH and temperature (sodium-phosphate pH 7.0, 70 °C).

For the compound `CCCC(=O)Oc1ccc([N+](=O)[O-])cc1` [pNP-butyrate], the Km turned out to be 80 ± 10 µM.

In general, Km refers to the substrate concentration at which the rate is half of its maximum.
